Measurements as given in ChEMBL document CHEMBL2346538, “Synthesis, cyclooxygenase inhibitory effects, and molecular modeling study of 4-aryl-5-(4-(methylsulfonyl)phenyl)-2-alkylthio and -2-alkylsulfonyl-1H-imidazole derivatives” (Bioorg Med Chem, 2013).
pIC50: −log10 of the molar value.

Molecular target: T1, Prostaglandin G/H synthase 2 (Homo sapiens, UniProt P35354)
T1 sequence (P35354 whole entry): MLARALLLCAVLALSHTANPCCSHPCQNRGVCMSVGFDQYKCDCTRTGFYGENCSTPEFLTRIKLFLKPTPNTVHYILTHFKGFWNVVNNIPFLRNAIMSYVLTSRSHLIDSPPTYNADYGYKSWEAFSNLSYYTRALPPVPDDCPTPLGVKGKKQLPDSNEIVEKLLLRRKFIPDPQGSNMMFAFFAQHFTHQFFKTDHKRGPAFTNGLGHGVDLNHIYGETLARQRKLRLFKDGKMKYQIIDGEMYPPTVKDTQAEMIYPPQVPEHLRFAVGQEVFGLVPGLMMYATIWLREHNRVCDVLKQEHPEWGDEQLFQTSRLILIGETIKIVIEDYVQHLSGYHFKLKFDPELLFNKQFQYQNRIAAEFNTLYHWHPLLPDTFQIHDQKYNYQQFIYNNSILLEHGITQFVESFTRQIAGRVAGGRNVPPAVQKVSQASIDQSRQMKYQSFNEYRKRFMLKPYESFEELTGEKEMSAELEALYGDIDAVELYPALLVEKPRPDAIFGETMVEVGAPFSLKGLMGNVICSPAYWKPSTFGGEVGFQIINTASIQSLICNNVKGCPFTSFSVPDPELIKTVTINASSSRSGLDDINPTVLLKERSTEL
Test: Inhibition of COX2 in human blood assessed as TxB2 level after 1 hr by enzyme immunoassay

SMILES	pIC50
CCS(=O)(=O)c1nc(-c2ccc(Cl)cc2)c(-c2ccc(S(C)(=O)=O)cc2)[nH]1	6.49
CS(=O)(=O)c1ccc(-c2[nH]c(S(C)(=O)=O)nc2-c2ccc(Cl)cc2)cc1	6.51
CS(=O)(=O)c1ccc(-c2[nH]c(S(C)(=O)=O)nc2-c2ccccc2)cc1	6.55
CSc1nc(-c2ccc(Cl)cc2)c(-c2ccc(S(C)(=O)=O)cc2)[nH]1	7.00
CS(=O)(=O)c1ccc(-c2[nH]c(S(C)(=O)=O)nc2-c2ccc(F)cc2)cc1	6.55
CCSc1nc(-c2ccc(Cl)cc2)c(-c2ccc(S(C)(=O)=O)cc2)[nH]1	6.96
CCS(=O)(=O)c1nc(-c2ccc(F)cc2)c(-c2ccc(S(C)(=O)=O)cc2)[nH]1	6.51
CCS(=O)(=O)c1nc(-c2ccccc2)c(-c2ccc(S(C)(=O)=O)cc2)[nH]1	6.62

These reach a higher pIC50. Values come first.

pIC50	SMILES
7.10	CCSc1nc(-c2ccc(F)cc2)c(-c2ccc(S(C)(=O)=O)cc2)[nH]1
7.15	CSc1nc(-c2ccc(F)cc2)c(-c2ccc(S(C)(=O)=O)cc2)[nH]1
7.22	CSc1nc(-c2ccccc2)c(-c2ccc(S(C)(=O)=O)cc2)[nH]1
7.30	CCSc1nc(-c2ccccc2)c(-c2ccc(S(C)(=O)=O)cc2)[nH]1
